Measurements taken from patent US11066421B1, “Synthetic cinchona alkaloids against cancer” (Ares Pharmaceuticals, LLC, priority 2021, dated 2021).
“Also recorded” adds a separate entry of the source.

Tests used:
[1] = tested on: U87 human GBM cells; experiment: CB.17 SCID mouse xenograft model of human glioblastoma multiforme; assay type: in vivo; settings: 5 days per week for 4 weeks
Protocol: Cell Lines. Human brain tumor cell line U87 (ATCC HTB-14) was obtained from American Type Culture Collection (Rockville, Md.) and maintained as a continuous cell line in DMEM supplemented with 10% fetal calf serum (FCS), 4 mm glutamine, 100 units/ml penicillin G, and […] streptomycin sulfate. All of the tissue culture reagents were obtained from Life Technologies, Inc. Inc. (Gaithersburg, Md.).
Mice. Female CB.17 SCID mice were obtained from Taconic (Germantown, N.Y.) and housed in a specific-pathogen-free room located in a secure indoor facility with controlled temperature, humidity, and noise levels. Mice were housed in micro-isolator cages and fed with autoclaved rodent chow. Water was also autoclaved and supplemented with trimethoprim/sulfomethoxazol 3 days a week. The animal protocol used in this study was approved by the local Institutional Animal Care and Use Committee (IACUC), and all of the animal care procedures conformed to the Guide for the Care and Use of Laboratory Animals (National Research Council, National Academy Press, Washington D.C. 1996).
SCID Mouse Xenograft Model of Human Glioblastoma Multiforme (GBM). The predictive value of the mouse xenograft models for clinical effectiveness of anti-cancer drugs has been confirmed for several drugs (Richmond A, Su. Y. Mouse xenograft models vs GEM models for human cancer therapeutics. Dis Model Mech. 2008; 1(2-3):78-82. doi:10.1242/dmm.000976). CB.17 SCID mice (8 wk. old, female) were inoculated subcutaneously with 1×10^6 U87 human GBM cells (1×10^6/inoculum, volume: 200 μL) in the right hind leg, as described (R. K. Narla et al., 2001, Clin Cancer Res. 7:2124-33). Mice were treated daily with intraperitoneal injections of vehicle (50 μL DMSO) or AP-1 (125 μg˜5 mg/kg/day in 50 μL DMSO) according to a 5 days on 2 days off schedule for 4 consecutive weeks. Tumor growth was determined by the measurement of visible tumors with a caliper in three dimensions three days a week and expressed as tumor volume in cubic millimeters (mm^3). Tumor volumes were calculated using the formula for the volume of a prolate spheroid, V=4/3×3.14×length/2×width/2×depth/2.

[2] = tested on: BT-20; experiment: Confocal laser scanning microscopy apoptosis, BT-20; assay type: cell-based, human; settings: 100 nM, 48 hours
Protocol: Confocal Laser Scanning Microscopy. Cells were treated with cinchona alkaloids or PBS in culture medium for 48 hours. After 48 hr of culture, cells were co-stained with a rabbit polyclonal antitubulin antibody (Green Fluorescence) and the DNA-specific dye Toto-3 (Blue Fluorescence) and examined by laser scanning confocal microscopy using a Bio-Rad MRC-1024 Laser Scanning Confocal Microscope equipped with a Kr/Ar laser (Bio-Rad, Hercules, Calif., USA) mounted on a Nikon Eclipse E800 upright microscope with high numerical aperture objectives (Nikon, Melville, N.Y., USA), as described (F. M. Uckun, et al., 2010, Proc. Natl. Acad. Sci. USA, 107: 2902-7; F. M. Uckun., et al., 2010, British Journal of Haematology, 149: 508-17; F. M. Uckun, et al., 2013, Blood. 121:4348-54; F. M. Uckun et al., 2010, Proc. Natl Acad. Sci. USA 107:16852-57; F. M. Uckun et al., 2012, Proc. Natl Acad. Sci. USA 109:18072-77). Cell lines. BT-20 (ATCC HTB-19), a triple negative breast cancer cell line, PC-3 (ATCC CRL-1435) a CRPC cell line (small cell endocrine carcinoma) derived from a Stage IV prostate cancer patient with bone metastases were obtained from American Type Culture Collection (ATCC) (Manassas, Va.). […] Cells were washed in PBS and counterstained with the DNA-specific dye TOTO-3 (blue fluorescence) (Molecular Probes Inc., Eugene, Oreg.) for 10 min at a dilution of 1:1000. […]

Compound	tumor progression ([1]; 5 mg/kg/dose i.p. daily)	average tumor size ([1]; day 15, 5 mg/kg/day i.p.)	average tumor size ([1]; day 30, 5 mg/kg/day i.p.)	tumor size ([1]; day 44, 5 mg/kg/day i.p.)	signs of apoptosis by confocal imaging [2]
C=CC1CN2CCC1CC2C(Oc1cc(OC(c2ccnc3ccccc23)C2CC3CCN2CC3C=C)nc(OC(c2ccnc3ccccc23)C2CC3CCN2CC3C=C)n1)c1ccnc2ccccc12 (centres unmarked) [AP-1, 2,4,6-Tri(9-O-cinchoninyl)pyrimidine]	significantly slowed down the tumor progression	4.1±1.1 mm^3	37.8±16.2 mm^3	956.0±291.3 mm^3	
2,4,6-Tri (9-O-dihydrocinchoninyl)pyrimidine [AP-5]					virtually all of the BT-20 or PC-3 cells treated with AP-5 showed signs of advanced apoptosis; also recorded: virtually all of the BT-20 cells treated with AP-5 showed signs of advanced apoptosis
